From patent publication US20240425483A1, “INDOLINES AS PROTAC COMPOUNDS” (NeoPhore Limited, priority 2021, published 2024)

Target: T1, PMS2 protein (Homo sapiens, UniProt P54278)
T1 construct: host or cells: SW620 human colorectal carcinoma cells
T1 sequence (P54278 1-862): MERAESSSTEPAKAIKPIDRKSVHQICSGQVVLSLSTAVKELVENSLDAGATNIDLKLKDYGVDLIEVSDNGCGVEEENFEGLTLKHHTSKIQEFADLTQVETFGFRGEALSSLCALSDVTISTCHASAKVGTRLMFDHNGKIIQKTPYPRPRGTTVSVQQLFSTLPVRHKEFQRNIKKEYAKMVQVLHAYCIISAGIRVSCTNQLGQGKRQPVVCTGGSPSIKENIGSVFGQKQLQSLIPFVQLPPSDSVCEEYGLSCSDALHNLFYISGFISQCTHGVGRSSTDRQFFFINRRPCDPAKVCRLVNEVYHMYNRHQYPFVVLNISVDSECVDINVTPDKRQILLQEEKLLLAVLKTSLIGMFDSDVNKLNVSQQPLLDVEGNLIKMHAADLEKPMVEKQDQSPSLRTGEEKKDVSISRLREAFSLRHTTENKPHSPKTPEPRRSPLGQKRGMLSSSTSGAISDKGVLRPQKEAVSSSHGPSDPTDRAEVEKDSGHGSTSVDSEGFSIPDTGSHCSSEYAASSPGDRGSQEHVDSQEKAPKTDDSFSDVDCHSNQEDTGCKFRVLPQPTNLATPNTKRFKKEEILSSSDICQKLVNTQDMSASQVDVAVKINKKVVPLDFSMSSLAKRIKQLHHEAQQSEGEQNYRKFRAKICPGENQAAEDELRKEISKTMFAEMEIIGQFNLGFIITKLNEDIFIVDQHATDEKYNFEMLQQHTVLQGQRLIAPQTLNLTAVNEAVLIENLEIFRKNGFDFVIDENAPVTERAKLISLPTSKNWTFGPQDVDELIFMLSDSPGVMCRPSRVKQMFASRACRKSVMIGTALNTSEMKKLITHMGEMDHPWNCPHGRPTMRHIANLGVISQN
Assay: PROTAC screening in SW620 human colorectal carcinoma cells, PMS2 protein level by JESS Western blot
Format: cell-based
Conditions: SW-620, 24 h, 1 uM compound, normalised to actin and DMSO control, Table A1
Method: PROTAC Screening Protocol Using SW620 Human Colorectal Carcinoma Cells
SVW620 cells (ATCC/[…]) were cultured in T75 Falcon flasks in culture media (F12/DMEM 1:1 media, 10% FCS, +L-G supplement). Cells were split twice a week, for a maximum of 6 weeks. Media was aspirated, and cells washed with 10 mL of sterile PBS. PBS was aspirated, and cells incubated with 1.5 mL TrypLE for up to 5 minutes at 37° C., 5% CO2. Once cells had detached, TrypLE was neutralised with 10 mL culture media and cells mixed 1:1 with Trypan blue and quantified using a Luna cell counter. Cells were then seeded into fresh T75 flasks with 1×10^6 cells and 10 mL culture media.
SW620 cells, cultured and counted as above, were used to seed 12 well plates at a density of 1.5×10^5 cells/well and incubated overnight at 37° C., 5% CO2. Test compounds were solubilized in DMSO to a stock concentration of 10 mM and serially diluted in DMSO and media to their test concentration; the final concentration of DMSO was 0.1% (v/v). Each concentration was tested in triplicate. SW620 cells were incubated with test compound for 24 hours at 37° C., 5% CO2. Media was aspirated from each well, and each well washed with 1 mL ice cold PBS. PBS was then aspirated, and 50 μL of cold lysis buffer (RIPA buffer supplemented with 1× protease inhibitors, Benzonase, MgCl) was added to each well; plates were then incubated on ice for 5 minutes. Cells were scraped using a pipette tip before being transferred to a fresh Eppendorf. Samples were spun at maximum speed in a benchtop centrifuge for 5 minutes at 4° C. and supernatant was then transferred to fresh tubes. Samples were stored at −80° C. until analysis.
Bicinchonininic acid (BCA) protein assay standards (2-0.125 mg/mL BSA) were prepared in advance. 6 μL of each standard was pipetted in duplicate into rows A and B of a 384-well assay plate. Test samples were diluted in lysis buffer (1:3-1:10) in a 384-well plate in duplicate. BCA Reagents were combined 50:1, Part A:Part B and 50 μL added to each well. Plates were incubated for 30 min at 37° C. in a plate incubator and read using a BCA protein 384 protocol on an EnSpire plate reader. Protein concentrations were calculated from a standard curve.
JESS Western Blot Protocol
Protein lysates were prepared using Protein Simple EZ standard pack reagents: 40 μL distilled H2O was added to a DTT tube (clear) and treated with 20 μL 10× sample buffer and 20 μL DTT to 5×MM tube (pink). 20 μL dH2O was added to biotinylated ladder tube (green).
Test samples were prepared by dilution to the required concentration (0.1 mg/mL) in 0.1× sample buffer. 1.25 μL 5× fluorescent master mix from the EZ standard pack was added to 5 μL sample for each lane to be loaded (e.g. 2.5 μL+10 μL if loading same sample into 2 wells). Samples were vortexed, briefly spun down and heated at 95° C. for 5 min in a PCR machine then vortexed again and briefly spun down before loading onto JESS cassettes (catalogue No: SM-W004) according to manufacturer's instructions (https://www.proteinsimple.com/technical_library.html?product=simplewestern&def_list=list). Protein expression was determined by the peak area of the target protein signal. Peak area of the target protein was normalised to peak area of the loading control (actin) and to DMSO control.

Compared with `Cc1c(O)cc(O)c(C(=O)N2Cc3ccc(CN4CCN(CCOCCOCCOCCOCCOCCOCCNc5cccc6c5C(=O)N(C5CCC(=O)NC5=O)C6=O)CC4)cc3C2)c1OCC1CCCCC1` (stereo not shown) [Example 8, 4-[2-[2-[2-[2-[2-[2-[2-[4-[[2-[2-(Cyclohexylmethoxy)-4,6-dihydroxy-3-methyl-benzoyl]isoindolin-5-yl]methyl]piperazin-1-yl]ethoxy]ethoxy]ethoxy]ethoxy]ethoxy]ethoxy]ethylamino]-2-(2,6-dioxo-3-piperidyl)isoindoline-1,3-dione], `Cc1c(O)cc(O)c(C(=O)N2Cc3ccc(CN4CCN(CCOCCOCCOCCOCCNc5cccc6c5C(=O)N(C5CCC(=O)NC5=O)C6=O)CC4)cc3C2)c1OCC1CCCCC1` (stereo not shown) [Example 6, 4-[2-[2-[2-[2-[2-[4-[[2-[2-(Cyclohexylmethoxy)-4,6-dihydroxy-3-methyl-benzoyl]isoindolin-5-yl]methyl]piperazin-1-yl]ethoxy]ethoxy]ethoxy]ethoxy]ethylamino]-2-(2,6-dioxo-3-piperidyl)isoindoline-1,3-dione] is lower in remaining activity at 1 µM: 10 to 25% for the first, < 10% for the second.

`Cc1ncsc1-c1ccc(CNC(=O)[C@@H]2C[C@@H](O)CN2C(=O)[C@@H](NC(=O)CCCCCCCC(=O)N2CCN(Cc3ccc4c(c3)CN(C(=O)c3c(O)cc(O)c(C)c3OCC3CCCCC3)C4)CC2)C(C)(C)C)cc1` [Example 28, (2S,4R)-1-[(2S)-2-[[9-[4-[[2-[2-(Cyclohexylmethoxy)-4,6-dihydroxy-3-methyl-benzoyl]isoindolin-5-yl]methyl]piperazin-1-yl]-9-oxo-nonanoyl]amino]-3,3-dimethyl-butanoyl]-4-hydroxy-N-[[4-(4-methylthiazol-5-yl)phenyl]methyl]pyrrolidine-2-carboxamide] and `Cc1ncsc1-c1ccc(CNC(=O)[C@@H]2C[C@@H](O)CN2C(=O)[C@@H](NC(=O)CCCCCCCCCC(=O)N2CCN(Cc3ccc4c(c3)CN(C(=O)c3c(O)cc(O)c(C)c3OCC3CCCCC3)C4)CC2)C(C)(C)C)cc1` [Example 30, (2S,4R)-1-[(2S)-2-[[11-[4-[[2-[2-(Cyclohexylmethoxy)-4,6-dihydroxy-3-methyl-benzoyl]isoindolin-5-yl]methyl]piperazin-1-yl]-11-oxo-undecanoyl]amino]-3,3-dimethyl-butanoyl]-4-hydroxy-N-[[4-(4-methylthiazol-5-yl)phenyl]methyl]pyrrolidine-2-carboxamide] cannot be ordered by remaining activity at 1 µM: < 10% for the first, < 10% for the second.

`Cc1c(O)cc(O)c(C(=O)N2Cc3ccc(C(=O)N4CCC(CN5CCN(c6ccc7c(c6)CN(C6CCC(=O)NC6=O)C7=O)CC5)CC4)cc3C2)c1OCc1ccccc1` (stereo not shown) [Example 22, 3-(5-(4-((1-(2-(2-(Benzyloxy)-4,6-dihydroxy-3-methylbenzoyl)isoindoline-5-carbonyl)piperidin-4-yl)methyl)piperazin-1-yl)-1-oxoisoindolin-2-yl)piperidine-2,6-dione] and `Cc1c(O)cc(O)c(C(=O)N2Cc3ccc(CN4CCC(CC(=O)N5CCN(c6ccc7c(c6)CN(C6CCC(=O)NC6=O)C7=O)CC5)CC4)cc3C2)c1OCC1CCCCC1` (stereo not shown) [Example 20, 3-(5-(4-(2-(1-((2-(2-(Cyclohexylmethoxy)-4,6-dihydroxy-3-methylbenzoyl)isoindolin-5-yl)methyl)piperidin-4-yl)acetyl)piperazin-1-yl)-1-oxoisoindolin-2-yl)piperidine-2,6-dione] fall in the same range of remaining activity at 1 µM: 10 to 25% for the first, 10 to 25% for the second.

`Cc1c(O)cc(O)c(C(=O)N2Cc3ccc(CN4CCN(CCOCCOCCOCCNc5cccc6c5CN(C5CCC(=O)NC5=O)C6=O)CC4)cc3C2)c1OCc1ccccc1` (stereo not shown) [Example 15, 3-(4-((2-(2-(2-(2-(4-((2-(2-(Benzyloxy)-4,6-dihydroxy-3-methylbenzoyl)isoindolin-5-yl)methyl)piperazin-1-yl)ethoxy)ethoxy)ethoxy)ethyl)amino)-1-oxoisoindolin-2-yl)piperidine-2,6-dione] and `Cc1c(O)cc(O)c(C(=O)N2Cc3ccc(CN4CCN(CCOCCOCCOCCNc5cccc6c5C(=O)N(C5CCC(=O)NC5=O)C6=O)CC4)cc3C2)c1OCc1ccccc1` (stereo not shown) [Example 1, 4-((2-(2-(2-(2-(4-((2-(2-(Benzyloxy)-4,6-dihydroxy-3-methylbenzoyl)isoindolin-5-yl)methyl)piperazin-1-yl)ethoxy)ethoxy)ethoxy)ethyl)amino)-2-(2,6-dioxopiperidin-3-yl)isoindoline-1,3-dione] fall in the same range of remaining activity at 1 µM: 10 to 25% for the first, 10 to 25% for the second.

`Cc1ncsc1-c1ccc(CNC(=O)[C@@H]2C[C@@H](O)CN2C(=O)[C@@H](NC(=O)CCCCCC(=O)N2CCN(Cc3ccc4c(c3)CN(C(=O)c3c(O)cc(O)c(C)c3OCC3CCCCC3)C4)CC2)C(C)(C)C)cc1` [Example 26, (2S,4R)-1-[(2S)-2-[[7-[4-[[2-[2-(Cyclohexylmethoxy)-4,6-dihydroxy-3-methyl-benzoyl]isoindolin-5-yl]methyl]piperazin-1-yl]-7-oxo-heptanoyl]amino]-3,3-dimethyl-butanoyl]-4-hydroxy-N-[[4-(4-methylthiazol-5-yl)phenyl]methyl]pyrrolidine-2-carboxamide] and `Cc1c(O)cc(O)c(C(=O)N2Cc3ccc(CN4CCN(CCOCCOCCOCCOCCNc5ccc6c(c5)C(=O)N(C5CCC(=O)NC5=O)C6=O)CC4)cc3C2)c1OCc1ccccc1` (stereo not shown) [Example 19, 5-[2-[2-[2-[2-[2-[4-[[2-(2-Benzyloxy-4,6-dihydroxy-3-methyl-benzoyl)isoindolin-5-yl]methyl]piperazin-1-yl]ethoxy]ethoxy]ethoxy]ethoxy]ethylamino]-2-(2,6-dioxo-3-piperidyl)isoindoline-1,3-dione] cannot be ordered by remaining activity at 1 µM: < 10% for the first, < 10% for the second.

First: Cc1c(O)cc(O)c(C(=O)N2Cc3ccc(C(=O)N4CCC(OCCOCCOCCN5CCN(c6cc7c(cc6F)C(=O)N(C6CCC(=O)NC6=O)C7=O)CC5)CC4)cc3C2)c1OCc1ccccc1 (stereo not shown) [Example 18, 5-(4-(2-(2-(2-((1-(2-(2-(Benzyloxy)-4,6-dihydroxy-3-methylbenzoyl)isoindoline-5-carbonyl)piperidin-4-yl)oxy)ethoxy)ethoxy)ethyl)piperazin-1-yl)-2-(2,6-dioxopiperidin-3-yl)-6-fluoroisoindoline-1,3-dione]
Second: Cc1c(O)cc(O)c(C(=O)N2Cc3ccc(CN4CCN(CCOCCOCCOCCOCCOCCOc5cccc6c5C(=O)N(C5CCC(=O)NC5=O)C6=O)CC4)cc3C2)c1OCc1ccccc1 (stereo not shown) [Example 12, 4-((17-(4-((2-(2-(Benzyloxy)-4,6-dihydroxy-3-methylbenzoyl)isoindolin-5-yl)methyl)piperazin-1-yl)-3,6,9,12,15-pentaoxaheptadecyl)oxy)-2-(2,6-dioxopiperidin-3-yl)isoindoline-1,3-dione]
The remaining activity at 1 µM of the first is higher: 25 to 50% for the first, 10 to 25% for the second.

Same assay, conditions: SW-620, 24 h, 1 uM compound, upon further testing, Table A2

`Cc1c(O)cc(O)c(C(=O)N2Cc3ccc(CN4CCN(CCOCCOCCOCCOCCOCCOc5cccc6c5C(=O)N(C5CCC(=O)NC5=O)C6=O)CC4)cc3C2)c1OCc1ccccc1` (stereo not shown) [Example 12, 4-((17-(4-((2-(2-(Benzyloxy)-4,6-dihydroxy-3-methylbenzoyl)isoindolin-5-yl)methyl)piperazin-1-yl)-3,6,9,12,15-pentaoxaheptadecyl)oxy)-2-(2,6-dioxopiperidin-3-yl)isoindoline-1,3-dione] was tested, and the remaining activity at 1 µM was < 10%.
